# Data as given in patent publication US20260034192A1 (University of Saskatchewan, priority 2022, published 2026).
# Marks after values point to notes of the source that are not given here. Square brackets hold non-standard residues; d marks the D form. Peptide text beside a SMILES is read from it. dPhe(4-Cl) = N[C@H](Cc1ccc(Cl)cc1)C(=O)O; d2Nal = N[C@H](Cc1ccc2ccccc2c1)C(=O)O; dCit = NC(=O)NCCC[C@@H](N)C(=O)O; d3Pal = N[C@H](Cc1cccnc1)C(=O)O
# Test system: pubertal Hereford-cross beef heifers
# Assay: Two 1.5 mg Cetrorelix injections at pre-selection, growing or late-static phase in beef heifers (Example 4)
# Format: in vivo, cattle
# Description: The study was conducted on pubertal Hereford-cross beef heifers (n=32) at the U. Sask. Livestock and Forage Centre of Excellence (LFCE). Initial transrectal ultrasonography was performed to confirm the puberty by the presence or absence of a corpus luteum (CL). Animals were also weighed at this time. Animals with a functional CL were administered an intramuscular (im) injection of prostaglandin F2a analog (cloprostenol) to cause CL regression and ovulation. Daily ultrasonography was performed to detect ovulation and to record the number, size and location of follicles and CL in both ovaries. The day of emergence of a follicular wave was initially estimated by sudden increase in the number of 3-4 mm follicles and confirmed retrospectively as the day on which the dominant follicle was first detected at 4 to 5 mm in size (defined as Day 0). Follicular and hormonal data (see next section for endpoints) from all animals was collected for one complete inter-ovulatory interval.
# Animals were randomized into 4 groups based on the day of ovulation. Group 1 (control group) heifers were given 3 mL normal saline (sham-treated negative control; n=3 on Days 1 and 2, n=3 on Days 3 and 4, n=2 on Days 6 and 7). Group 2 heifers were given 1.5 mg Cetrorelix on Days 1 and 2 (pre-selection dominant follicle phase; n=8), Group 3 heifers were given Cetrorelix on Days 3 and 4 (dominant follicle growing phase; n=8), and Group 4 heifers were given Cetrorelix on Days 6 and 7 (dominant follicle late-static/early regressing phase; n=8). The dose of Cetrorelix (1.5 mg per treatment), route of administration (intramuscular) and duration of treatment (i.e., 2 doses at 24 hr interval) were selected based on Example 2 and previous studies in cattle (Ulker et al, 2001).
# Changes in the size of the dominant follicle, largest subordinate follicle and CL, and the number of follicles in 3-5, 6-8, and 9+mm size categories were recorded daily from initial ovulation to the first post-treatment ovulation. The inter-wave interval was determined based on duration between emergence of successive follicular waves.
# Blood samples were also collected every 12 hours by jugular venipuncture for measurement of plasma LH concentrations from −36 hr to +72 hr of treatment. Blood samples were collected daily for measurement of plasma progesterone concentrations from 1 day before to 7 days after treatment. A Proc Mixed repeated measures analysis of variance (SAS version 9.4) was performed to compare serial data (follicle size, follicle numbers, CL size, plasma LH, plasma progesterone).
structure (smiles),measurement,setting,value
"CC(=O)N[C@H](Cc1ccc2ccccc2c1)C(=O)N[C@H](Cc1ccc(Cl)cc1)C(=O)N[C@H](Cc1cccnc1)C(=O)N[C@@H](CO)C(=O)N[C@@H](Cc1ccc(O)cc1)C(=O)N[C@H](CCCNC(N)=O)C(=O)N[C@@H](CC(C)C)C(=O)N[C@@H](CCCNC(=N)N)C(=O)N1CCC[C@H]1C(=O)N[C@H](C)C(N)=O [Cetrorelix, N-acetyl-3-(2-naphthyl)-D-alanyl-4-chloro-D-phenylalanyl-3-(3-pyridyl)-D-alanyl-L-seryl-L-tyrosyl-D-citrullyl-L-leucyl-L-arginyl-L-prolyl-D-alaninamide] (Ac-[d2Nal][dPhe(4-Cl)][d3Pal]SY[dCit]LRP[dA]-NH2)",Days from treatment to next wave emergence,1.5 mg i/m on Day 1-2 of wave,5.9 ± 0.4 days
same,Days from treatment to next wave's dominant follicle at 9 mm,1.5 mg i/m on Day 1-2 of wave,9.1 ± 0.8 days
same,Interovulatory Interval,1.5 mg i/m on Day 1-2 of wave,21.5 ± 1.4
same,Interwave Interval,1.5 mg i/m on Day 1-2 of wave,6.9 ± 0.4^b
same,Largest Dominant Follicle Diameter (mm),1.5 mg i/m on Day 1-2 of wave,10.3 ± 0.6^b mm
same,Largest Subordinate Follicle Diameter (mm),1.5 mg i/m on Day 1-2 of wave,7.1 ± 0.5^b mm
same,Number of Follicles at WE,1.5 mg i/m on Day 1-2 of wave,19.3 ± 2.0
same,Time to Largest Dominant (days),1.5 mg i/m on Day 1-2 of wave,6.3 ± 0.9^ab days
same,Time to Largest Subordinate,1.5 mg i/m on Day 1-2 of wave,3.1 ± 0.6 days
same,Length of Wave 2,"1.5 mg i/m on Day 1-2 of wave, in d (unit assumed)",9.3 ± 0.7
same,Days from treatment to next wave emergence,1.5 mg i/m on Day 3-4 of wave,5.8 ± 0.5 days
same,Days from treatment to next wave's dominant follicle at 9 mm,1.5 mg i/m on Day 3-4 of wave,9.5 ± 0.5 days
same,Interovulatory Interval,1.5 mg i/m on Day 3-4 of wave,20.3 ± 0.4
same,Interwave Interval,1.5 mg i/m on Day 3-4 of wave,8.9 ± 0.4^ab
same,Largest Dominant Follicle Diameter (mm),1.5 mg i/m on Day 3-4 of wave,10.6 ± 0.4^b mm
same,Largest Subordinate Follicle Diameter (mm),1.5 mg i/m on Day 3-4 of wave,6.9 ± 0.4^b mm
same,Number of Follicles at WE,1.5 mg i/m on Day 3-4 of wave,20.9 ± 2.7 ^
same,Time to Largest Dominant (days),1.5 mg i/m on Day 3-4 of wave,4.6 ± 0.6^b days
same,Time to Largest Subordinate (days),1.5 mg i/m on Day 3-4 of wave,4.0 ± 1.0^ days
same,Length of Wave 2,"1.5 mg i/m on Day 3-4 of wave, in d (unit assumed)",9.1 ± 0.8
same,Days from treatment to next wave emergence,1.5 mg i/m on Day 6-7 of wave,4.3 ± 0.6 days
same,Days from treatment to next wave's dominant follicle at 9 mm,1.5 mg i/m on Day 6-7 of wave,8.3 ± 0.7 days
same,Interovulatory Interval,1.5 mg i/m on Day 6-7 of wave,19.6 ± 0.6
same,Interwave Interval,1.5 mg i/m on Day 6-7 of wave,10.3 ± 0.6^a
same,Largest Dominant Follicle Diameter (mm),1.5 mg i/m on Day 6-7 of wave,12.9 ± 0.4^a mm
same,Largest Subordinate Follicle Diameter (mm),1.5 mg i/m on Day 6-7 of wave,7.9 ± 0.6^b mm
same,Length of Wave 2,1.5 mg i/m on Day 6-7 of wave,8.3 ± 0.5
same,Number of Follicles at WE,1.5 mg i/m on Day 6-7 of wave,15.8 ± 1.1
same,Time to Largest Dominant (days),1.5 mg i/m on Day 6-7 of wave,6.8 ± 0.9^ab days
same,Time to Largest Subordinate,1.5 mg i/m on Day 6-7 of wave,3.9 ± 0.5 days
same,Wave emergence after the first Cetrorelix treatment irrespective of phase of dominant follicle,"two 1.5 mg (about 3.75 ug/kg) i/m doses 24 hr apart, groups combined",5.3 ± 0.3 days
same,Next wave dominant follicle ready for ovulation,two 1.5 mg i/m doses,9 days
